Data reported in ChEMBL document CHEMBL5104147, “Biocatalytic synthesis and evaluation of antioxidant and antibacterial activities of hydroxyequols” (Bioorg Med Chem Lett, 2022).
In brackets after ≈: the same amount, converted by molar mass.

Key:
Format in all cases: functional
[1] = Antioxidant activity assessed as DPPH radical scavenging activity by DPPH assay
Escherichia coli [2] = test: Bactericidal activity against Escherichia coli assessed as decrease in cell survival
Escherichia coli [3] = test: Antibacterial activity against Escherichia coli assessed as inhibition of bacterial growth
[4] = Antioxidant activity assessed as trolox equivalent of DPPH radical scavenging activity by DPPH assay relative to trolox
Bacillus subtilis [5] = test: Bactericidal activity against Bacillus subtilis assessed as decrease in cell survival
Bacillus subtilis [6] = test: Antibacterial activity against Bacillus subtilis assessed as inhibition of bacterial growth

IC50 [1] | MIC (Escherichia coli [3]) | MIC (Bacillus subtilis [6]) | SMILES | MBC (Escherichia coli [2]) | Ratio IC50 [4] | MBC (Bacillus subtilis [5])
233 µM | 64 µg/mL (≈ 248 µM) | 128 µg/mL (≈ 496 µM) | Oc1ccc([C@H]2COc3cc(O)c(O)cc3C2)cc1 | 64 µg/mL (≈ 248 µM) | 1.08 | 128 µg/mL (≈ 496 µM)
250 µM | 512 µg/mL (≈ 1980 µM) | 256 µg/mL (≈ 991 µM) | Oc1ccc2c(c1)OC[C@H](c1ccc(O)c(O)c1)C2 | 512 µg/mL (≈ 1980 µM) | 1.02 | 512 µg/mL (≈ 1980 µM)
52000 µM | 256 µg/mL (≈ 1060 µM) | 64 µg/mL (≈ 264 µM) | Oc1ccc([C@H]2COc3cc(O)ccc3C2)cc1 [AUS-131] | > 1020 µg/mL | 4.99 10^-3No_unit | 256 µg/mL (≈ 1060 µM)
– | > 1020 µg/mL | > 1020 µg/mL | O=c1c(-c2ccc(O)cc2)coc2cc(O)ccc12 [DAIDZEIN] | – | – | –
249 µM | – | – | Cc1c(C)c2c(c(C)c1O)CCC(C)(C(=O)O)O2 (configuration not stated) [TROLOX] | – | – | –
112 µM | 128 µg/mL (≈ 467 µM) | 256 µg/mL (≈ 933 µM) | Oc1ccc([C@H]2COc3cc(O)c(O)cc3C2)cc1O | > 1020 µg/mL | 2.28 | 256 µg/mL (≈ 933 µM)
